One test has as its target T1, NK-1 (Homo sapiens, UniProt P25103).
T1 construct: endogenous in cells; host or cells: U373 cells (crude membranes)
Kind of test: NK1 radioligand binding assay. The settings on record: U373 membrane preparation, [125I]Substance P. The procedure: (§1) NK-1 Binding assay. Crude membrane suspensions were prepared for the NK1 and SERT radioligand binding assays from U373 cells or recombinant HEK-293 cells expressing hSERT, respectively. […] The medium is removed from the flasks and the cells rinsed with HBSS without Ca and without Mg. The cells are then incubated for 5-10 minutes in 10 mM Tris-Cl, pH 7.5, 5 mM EDTA before the cells are lifted with a combination of pipetting and scraping, as needed. To prepare membranes, the cell suspension is collected into centrifuge bottles and homogenized for 30 seconds with a Polytron homogenizer. The suspension is centrifuged for 30 min 32,000×g, 4° C., then the supernatant is decanted and the pellet resuspended and homogenized in 50 mM Tris-Cl, pH 7.5, 1 mM EDTA for 10 seconds. The suspension is then centrifuged again for 30 min 32,000×g, 4° C. The supernatant is decanted and the pellet resuspended in 50 mM Tris-Cl, pH 7.5, 1 mM EDTA and briefly homogenized. A Bradford assay (Bio-rad) is performed and the membrane preparation diluted to 2 mg/ml with 50 mM Tris-Cl, pH 7.5, 1 mM EDTA. Aliquots are prepared, and then frozen and stored at −80° C.
(§2) NK1 radioligand binding assay. Compounds are dissolved in 100% DMSO at a concentration 100× the desired highest assay concentration, serially diluted 1:3 in 100% DMSO, and 0.6 ul/well of each solution is dispensed to a Nunc polypropylene, round bottom, 384 well plate. […] The contents of the assay plate are then transferred to a Millipore MultiscreenHTS GF/B filter plate which has been pretreated with 0.5% PEI for at least one hour. The plate is vacuum filtered and washed with 7 washes of 100 ul/well of 20 mM Tris-Cl, pH 7.5, 0.5% (w/v) BSA chilled to 4° C. The filtration and washing is completed in less than 90 s. The plates are air-dried overnight, 12 ul/well of MicroScint scintillation fluid added, and the plates counted in a Trilux.
(§3) Data analysis. […] Each plate is run in triplicate, and the concentration response curve thus generated is fit using the four-parameter dose response equation, Y=Bottom+(Top-Bottom)/(1+10^((Log IC50−X)*HillSlope)) in order to determine the IC50 value for each compound. The radioligand concentration chosen for each assay corresponds to the Kd concentration determined through saturation binding analysis for each assay.

In another test the target is T2, hSERT (Homo sapiens, UniProt P31645).
T2 construct: expressed in transfected cells; host or cells: HEK-293 cells (crude membranes)
Kind of test: SERT radioligand binding assay. As to the method: as §1
as §2, with “SERT” for “NK1”, “0.4” for “0.6”, “50” for “20”, “120 mM NaCl, 5 mM KCl” for “0.5% (w/v) BSA”
as §3

Where [1] appears, read: HEK-hSERT membrane preparation, [125I]RTI-55, read-out: SERT IC50.

SMILES strings stand for the structures. pIC50: −log10 of the molar value. Read-outs that look alike come from different tables or passages of the source.

In general, pIC50 refers to −log10 of the IC50, conventionally taken in molar units.

T1 sequence (P25103 whole entry): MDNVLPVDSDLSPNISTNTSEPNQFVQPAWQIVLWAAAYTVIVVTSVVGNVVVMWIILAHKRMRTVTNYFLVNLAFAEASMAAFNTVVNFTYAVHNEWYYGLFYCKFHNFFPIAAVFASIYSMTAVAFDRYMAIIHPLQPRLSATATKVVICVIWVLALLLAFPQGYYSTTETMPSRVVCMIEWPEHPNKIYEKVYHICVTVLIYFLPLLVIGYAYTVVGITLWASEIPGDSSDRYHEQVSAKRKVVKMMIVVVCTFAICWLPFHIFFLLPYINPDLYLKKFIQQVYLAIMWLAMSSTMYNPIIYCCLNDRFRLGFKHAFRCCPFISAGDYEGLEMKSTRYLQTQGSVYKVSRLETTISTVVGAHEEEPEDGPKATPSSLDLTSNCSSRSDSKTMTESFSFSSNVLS
T2 sequence (P31645 whole entry): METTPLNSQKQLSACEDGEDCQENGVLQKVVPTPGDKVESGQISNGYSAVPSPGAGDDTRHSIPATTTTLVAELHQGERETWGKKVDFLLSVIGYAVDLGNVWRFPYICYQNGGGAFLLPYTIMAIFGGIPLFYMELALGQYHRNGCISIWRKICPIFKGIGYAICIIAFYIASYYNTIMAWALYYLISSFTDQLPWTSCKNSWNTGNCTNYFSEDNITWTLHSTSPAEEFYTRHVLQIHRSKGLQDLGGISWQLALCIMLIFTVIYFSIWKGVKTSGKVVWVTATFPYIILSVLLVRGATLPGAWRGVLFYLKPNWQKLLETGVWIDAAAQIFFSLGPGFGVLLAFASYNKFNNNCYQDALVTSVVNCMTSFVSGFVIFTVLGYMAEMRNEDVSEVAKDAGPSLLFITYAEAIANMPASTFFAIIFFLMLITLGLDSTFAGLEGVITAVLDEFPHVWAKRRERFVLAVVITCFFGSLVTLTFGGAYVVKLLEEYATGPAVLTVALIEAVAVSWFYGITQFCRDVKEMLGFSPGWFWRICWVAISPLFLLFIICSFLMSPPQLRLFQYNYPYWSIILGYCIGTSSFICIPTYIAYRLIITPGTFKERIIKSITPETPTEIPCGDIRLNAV

For `CCN(CC)c1cc(C(F)(F)F)cc(COCC2(c3ccc(F)cc3)CCNCC2)n1` [Example 22], the negative logarithm of the IC50 (pIC50) on NK-1 and at hSERT (setting [1]) was 7.00 to 11.00 throughout.

Consider `C[C@H]1CCCN1c1cc(C(F)(F)F)cc(COCC2(c3ccc(F)cc3)CCN(C)CC2)n1` [Example 93], for which the pIC50 on NK-1 and on hSERT was 7.00 to 11.00 in each case.

With `CN1CCC(COCc2cncc(-c3ccco3)c2)(c2ccccc2)CC1` [Example 49], the pIC50 on NK-1 is less than 6.52; at hSERT, 7.00 to 11.00.

For `CN1CCC(COCc2cc(C(F)(F)F)cc(-c3ccc(C#N)cc3)n2)(c2ccc(F)cc2F)CC1` [Example 64], the figures for the pIC50 on NK-1 and on hSERT were 7.00 to 11.00 and 6.52 to 7.00, respectively.

As to `CN1CCC(COCc2cc(C(F)(F)F)cc(Cl)n2)(c2cccnc2)CC1` [Example 35, 2-chloro-6-(((1-methyl-4-(pyridin-3-yl)piperidin-4-yl)methoxy)methyl)-4-(trifluoromethyl)pyridine], the pIC50 was less than 6.52 on NK-1 and 7.00 to 11.00 on hSERT.

For `COc1cc(OC)nc(COCC2(c3ccccc3)CCNCC2)n1` [Example 30, 4,6-dimethoxy-2(((4-phenylpiperidin-4-yl)methoxy)methyl)pyrimidine], the pIC50 was less than 6.52 at NK-1 and 6.52 to 7.00 on hSERT (setting [1]).

Regarding `Fc1ccc(-c2cc(C(F)(F)F)cc(COCC3(c4ccccc4)CCNCC3)n2)cc1` [Example 5], the pIC50 at NK-1 and on hSERT (setting [1]) was 7.00 to 11.00 throughout.

Take `CN1CCC(COCc2cc(C(F)(F)F)cc(N3CCC(N4CCCC4)CC3)n2)(c2ccccc2)CC1` [Example 88]: the pIC50 is less than 6.52 at NK-1 and 7.00 to 11.00 on hSERT (setting [1]).

On to `CN1CCC(COCc2cc(C(F)(F)F)cc(-c3ccc(C#N)cc3)n2)(c2ccccc2F)CC1` [Example 54], for which the results for the negative logarithm of the IC50 (pIC50) at NK-1 and at hSERT were 7.00 to 11.00 and 6.52 to 7.00, respectively.

Take `CN1CCC(COCc2cc(C(F)(F)F)cc(-c3ccc(C#N)cc3)n2)(c2ccccc2)CC1` [Example 41]: the pIC50 on NK-1 and at hSERT was 7.00 to 11.00 throughout.

As to `Clc1ccc(-c2ccc(COCC3(c4ccccc4)CCNCC3)cn2)cc1` [Example 10], the pIC50 was less than 6.52 on NK-1 and 7.00 to 11.00 on hSERT (setting [1]).

Take `CN1CCC(COCc2cc(C(F)(F)F)cc(-c3ccc(C#N)cc3)n2)(c2ccc(C#N)cc2)CC1` [Example 84]: the pIC50 on NK-1 and on hSERT was 7.00 to 11.00 throughout.

On to `N#CC1CCN(c2cc(C(F)(F)F)cc(COCC3(c4ccc(F)cc4)CCNCC3)n2)C1` (stereo not drawn) [Example 18], for which the pIC50 at NK-1 and on hSERT (setting [1]) was 7.00 to 11.00 in each case.

As to `CN1CCC(COCc2cc(C(F)(F)F)cc(-c3cccn3C(=O)OC(C)(C)C)n2)(c2ccc(F)cc2)CC1` [Example 65], the pIC50 on NK-1 is 7.00 to 11.00; on hSERT, 6.52 to 7.00.

With `C[C@@H]1CCCN1c1cc(C(F)(F)F)cc(COCC2(c3ccc(F)cc3)CCN(C)CC2)n1` [Example 94], the pIC50 at NK-1 and on hSERT was 7.00 to 11.00 in each case.

For the compound `Cc1ccc(-c2cc(C(F)(F)F)cc(COCC3(c4ccccc4)CCNCC3)n2)cc1` [Example 4], the pIC50 on NK-1 and at hSERT (setting [1]) was 7.00 to 11.00 throughout.

On to `COc1ccc(-c2cc(C(F)(F)F)cc(COCC3(c4ccccc4)CCNCC3)n2)cc1` [Example 1, 2-(4-methoxyphenyl)-6-(((4-phenylpiperidin-4-yl)methoxy)methyl)-4-(trifluoromethyl)pyridine], for which the pIC50 at NK-1 and on hSERT (setting [1]) was 7.00 to 11.00 in each case.

Consider `CN1CCC(COCc2cc(C(F)(F)F)cc(-c3ccc(C#N)cc3)n2)(c2cccnc2)CC1` [Example 98], for which the pIC50 at NK-1 and on hSERT was 7.00 to 11.00 each time.

For `COc1cc(COCC2(c3ccc(F)cc3)CCN(C)CC2)cc(-c2ccc(C#N)cc2)n1` [Example 76], the pIC50 on NK-1 and at hSERT was 7.00 to 11.00 in each case.

`CC(OCC1(c2ccccc2)CCNCC1)c1cc(C(F)(F)F)cc(N2CCOCC2)n1` (stereo not drawn) [Example 23]: the pIC50 at NK-1 and on hSERT (setting [1]) was 7.00 to 11.00 in each case.

Take `COc1ccc(-c2cc(C(F)(F)F)cc(COCC3(c4ccc(F)cc4)CCN(C)CC3)n2)cc1` [Example 74]: the pIC50 on NK-1 and on hSERT was 7.00 to 11.00 throughout.

Source of the values: US8071778B2, “Substituted heterocyclic ethers and their use in CNS disorders” (Bristol-Myers Squibb Company, priority 2006, dated 2011).
